Where two headings read alike, the source gives them in different places.
Experiments:
Experiment in all cases: Test D pre-/postemergence plant response
Type in all cases: in vivo
[1] = system: morningglory (Ipomoea coccinea); conditions: Ipomoea; for pest or weed control at 31 g/ha: 31 g ai/ha; for pest or weed control at 62 g/ha: 62 g ai/ha; for pest or weed control at 125 g/ha: 125 g ai/ha
Summary of the method: (§1)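 Visual rating, 0–100 scale (0 = no effect, 100 = complete control), versus untreated controls 13 to 15 days after treatment in greenhouse. Preemergence: seeds in loam/sand soil. Postemergence: 2 to 18 cm plants, 1- to 4-leaf stage, peat-based medium. Compounds formulated in non-phytotoxic solvent plus surfactant.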

[2] = system: lambsquarters (Chenopodium album); conditions: Chenopodium album; for pest or weed control at 31 g/ha: 31 g ai/ha; for pest or weed control at 62 g/ha: 62 g ai/ha; for pest or weed control at 125 g/ha: 125 g ai/ha
Summary of the method: as §1

[3] = system: Italian ryegrass (Lolium multiflorum); conditions: Lolium multiflorum; for pest or weed control at 31 g/ha: 31 g ai/ha; for pest or weed control at 62 g/ha: 62 g ai/ha; for pest or weed control at 125 g/ha: 125 g ai/ha
Summary of the method: as §1

[4] = system: yellow nutsedge (Cyperus esculentus); conditions: Cyperus; for pest or weed control at 31 g/ha: 31 g ai/ha; for pest or weed control at 62 g/ha: 62 g ai/ha; for pest or weed control at 125 g/ha: 125 g ai/ha
Summary of the method: as §1

[5] = system: large (Lg) crabgrass (Digitaria sanguinalis); conditions: Digitaria sanguinalis; for pest or weed control at 16 g/ha: 16 g ai/ha; for pest or weed control at 31 g/ha: 31 g ai/ha; for pest or weed control at 62 g/ha: 62 g ai/ha; for pest or weed control at 125 g/ha: 125 g ai/ha
Summary of the method: as §1

[6] = system: winter wheat (Triticum aestivum); conditions: Triticum aestivum; for plant injury at 31 g/ha: 31 g ai/ha; for plant injury at 62 g/ha: 62 g ai/ha; for plant injury at 125 g/ha: 125 g ai/ha
Summary of the method: as §1

corn (Zea mays) = conditions: Zea mays, post-emergence, Postemergence
Summary of the method: as §1

[7] = post-emergence, Postemergence, scale 0 to 100, 0 no effect, 100 complete control, read-out: Plant response rating, Morningglory
[8] = pre-emergence, Preemergence, scale 0 to 100 (0 no effect, 100 complete control), read-out: Plant response rating, Morningglory
[9] = post-emergence, Postemergence, scale 0 to 100, 0 no effect, 100 complete control, read-out: Plant response rating, Lambsquarters
[10] = pre-emergence, Preemergence, scale 0 to 100 (0 no effect, 100 complete control), read-out: Plant response rating, Lambsquarters
[11] = post-emergence, Postemergence, scale 0 to 100, 0 no effect, 100 complete control, read-out: Plant response rating, Ryegrass, Italian
[12] = pre-emergence, Preemergence, scale 0 to 100 (0 no effect, 100 complete control), read-out: Plant response rating, Ryegrass, Italian
[13] = post-emergence, Postemergence, scale 0 to 100, 0 no effect, 100 complete control, read-out: Plant response rating, Nutsedge, Yellow
[14] = pre-emergence, Preemergence, scale 0 to 100 (0 no effect, 100 complete control), read-out: Plant response rating, Nutsedge, Yellow
[15] = post-emergence, Postemergence, scale 0 to 100 (0 no effect, 100 complete control), read-out: Crabgrass, Large plant response rating
[16] = post-emergence, Postemergence, scale 0 to 100, 0 no effect, 100 complete control, read-out: Plant response rating, Crabgrass, Large
[17] = pre-emergence, Preemergence, scale 0 to 100 (0 no effect, 100 complete control), read-out: Plant response rating, Crabgrass, Large
[18] = post-emergence, Postemergence, scale 0 to 100, 0 no effect, 100 complete control, read-out: Plant response rating, Wheat
[19] = pre-emergence, Preemergence, scale 0 to 100 (0 no effect, 100 complete control), read-out: Plant response rating, Wheat

`Fc1cccc(Oc2ncc(Br)cn2)c1-c1cc(C(F)F)no1` [Compound 145, 5-bromo-2-[2-[3-(difluoromethyl)-5-isoxazolyl]-3-fluorophenoxy]pyrimidine] was tested, and the pest or weed control at 31 g/ha ([1]; post-emergence, Postemergence, scale 0 to 100 (0 no effect, 100 complete control), read-out: Morningglory plant response rating) was 85%, the pest or weed control at 62 g/ha [1, 7] was 85% and the pest or weed control at 125 g/ha [1, 7] was 80%. It also gave a pest or weed control at 125 g/ha ([1]; pre-emergence, Preemergence, read-out: Plant response rating (scale 0 to 100), Morningglory) of 100%, a pest or weed control at 16 g/ha ([1]; pre-emergence, Preemergence, 16 g ai/ha, scale 0 to 100 (0 no effect, 100 complete control), read-out: Plant response rating, Morningglory) of 15% and a pest or weed control at 31 g/ha [1, 8] of 55%. The pest or weed control at 62 g/ha [1, 8] was 90%, the pest or weed control at 31 g/ha ([2]; post-emergence, Postemergence, scale 0 to 100 (0 no effect, 100 complete control), read-out: Lambsquarters plant response rating) was 85% and the pest or weed control at 62 g/ha [2, 9] was 85%. For the same compound, the pest or weed control at 125 g/ha [2, 9] was 95%, the pest or weed control at 125 g/ha ([2]; pre-emergence, Preemergence, read-out: Plant response rating (scale 0 to 100), Lambsquarters) was 100% and the pest or weed control at 16 g/ha ([2]; pre-emergence, Preemergence, 16 g ai/ha, scale 0 to 100 (0 no effect, 100 complete control), read-out: Plant response rating, Lambsquarters) was 100%. For the same compound, the pest or weed control at 31 g/ha [2, 10] was 100%, the pest or weed control at 62 g/ha [2, 10] was 100% and the pest or weed control at 31 g/ha ([3]; post-emergence, Postemergence, scale 0 to 100 (0 no effect, 100 complete control), read-out: Ryegrass, Italian plant response rating) was 0%. It also gave a pest or weed control at 62 g/ha [3, 11] of 10%, a pest or weed control at 125 g/ha [3, 11] of 10% and a pest or weed control at 125 g/ha ([3]; pre-emergence, Preemergence, read-out: Plant response rating (scale 0 to 100), Ryegrass, Italian) of 85%. The pest or weed control at 16 g/ha ([3]; pre-emergence, Preemergence, 16 g ai/ha, scale 0 to 100 (0 no effect, 100 complete control), read-out: Plant response rating, Ryegrass, Italian) was 0%, the pest or weed control at 31 g/ha [3, 12] was 35% and the pest or weed control at 62 g/ha [3, 12] was 70%. For the same compound, the pest or weed control at 31 g/ha ([4]; post-emergence, Postemergence, scale 0 to 100 (0 no effect, 100 complete control), read-out: Nutsedge, Yellow plant response rating) was 5%, the pest or weed control at 62 g/ha [4, 13] was 5% and the pest or weed control at 125 g/ha [4, 13] was 10%. It also gave a pest or weed control at 125 g/ha ([4]; pre-emergence, Preemergence, read-out: Plant response rating (scale 0 to 100), Nutsedge, Yellow) of 45%, a pest or weed control at 16 g/ha ([4]; pre-emergence, Preemergence, 16 g ai/ha, scale 0 to 100 (0 no effect, 100 complete control), read-out: Plant response rating, Nutsedge, Yellow) of 0% and a pest or weed control at 31 g/ha [4, 14] of 0%. For the same compound, the pest or weed control at 62 g/ha [4, 14] was 30%, the pest or weed control at 16 g/ha [5, 15] was 5% and the pest or weed control at 31 g/ha [5, 15] was 10%. It also gave a pest or weed control at 62 g/ha [5, 16] of 10%, a pest or weed control at 125 g/ha [5, 16] of 20% and a pest or weed control at 125 g/ha ([5]; pre-emergence, Preemergence, read-out: Plant response rating (scale 0 to 100), Crabgrass, Large) of 100%. For the same compound, the pest or weed control at 16 g/ha [5, 17] was 85%, the pest or weed control at 31 g/ha [5, 17] was 100% and the pest or weed control at 62 g/ha [5, 17] was 100%. It also gave a plant injury at 31 g/ha ([6]; post-emergence, Postemergence, scale 0 to 100 (0 no effect, 100 complete control), read-out: Wheat plant response rating) of 5%, a plant injury at 62 g/ha [6, 18] of 5% and a plant injury at 125 g/ha [6, 18] of 10%. The plant injury at 125 g/ha ([6]; pre-emergence, Preemergence, read-out: Plant response rating (scale 0 to 100), Wheat) was 10%, the plant injury at 16 g/ha ([6]; pre-emergence, Preemergence, 16 g ai/ha, scale 0 to 100 (0 no effect, 100 complete control), read-out: Plant response rating, Wheat) was 0% and the plant injury at 31 g/ha [6, 19] was 0%. The plant injury at 62 g/ha [6, 19] was 5%, the plant injury at 16 g/ha (corn (Zea mays); 16 g ai/ha, scale 0 to 100 (0 no effect, 100 complete control), read-out: Corn plant response rating) was 5% and the plant injury at 31 g/ha (corn (Zea mays); 31 g ai/ha, scale 0 to 100 (0 no effect, 100 complete control), read-out: Corn plant response rating) was 5%. It also gave a Corn plant response rating (crop injury, 0 = no effect, 100 = complete kill) at 62 g/ha (corn (Zea mays); 62 g ai/ha, scale 0 to 100, 0 no effect, 100 complete control) of 5% and a Corn plant response rating (crop injury, 0 = no effect, 100 = complete kill) at 125 g/ha (corn (Zea mays); 125 g ai/ha, scale 0 to 100, 0 no effect, 100 complete control) of 10%.

From patent US10131652B2, “Pyrimidinyloxy benzene derivatives as herbicides” (E. I. DU PONT DE NEMOURS AND COMPANY, priority 2014, dated 2018)
